Test results as given in ChEMBL document CHEMBL3352668, “Synthesis and antibacterial evaluation of new, unsymmetrical triaryl bisamidine compounds” (Bioorg Med Chem Lett, 2014).
In brackets after ≈: the same amount, converted by molar mass.

Experiments:
[1] = system: Bacillus anthracis; assay: Antimicrobial activity against Bacillus anthracis Sterne by CLSI method; format: functional
[2] = system: Escherichia coli; assay: Antimicrobial activity against TolC-deficient Escherichia coli by CLSI method; format: functional; conditions: Escherichia coli; read-out: MIC
[3] = system: Enterococcus faecalis; assay: Antimicrobial activity against vancomycin-resistant Enterococcus faecalis ATCC 51575 by CLSI method; format: functional
[4] = system: HeLa; assay: (§1) Cytotoxicity against human HeLa cells by MTS assay; format: cell-based; conditions: hela
[5] = system: Staphylococcus aureus; assay: Antimicrobial activity against methicillin-resistant Staphylococcus aureus 1094 by CLSI method; format: functional
[6] = system: Escherichia coli; assay: Antimicrobial activity against TolC+ Escherichia coli 700 by CLSI method; format: functional
[7] = system: Pseudomonas aeruginosa; assay: Antimicrobial activity against Pseudomonas aeruginosa PAO1 by CLSI method; format: functional
[8] = system: Klebsiella pneumoniae; assay: Antimicrobial activity against Klebsiella pneumoniae 13882 by CLSI method; format: functional
[9] = system: Pseudomonas aeruginosa; assay: Antimicrobial activity against mexAB-oprM deficient Pseudomonas aeruginosa PAO1 harboring by CLSI method; format: functional
[10] = system: Bacillus subtilis; assay: Antimicrobial activity against Bacillus subtilis BD54 by CLSI method; format: functional
[11] = as §1; format: cell-based; conditions: HeLa cells
[12] = Bacillus anthracis, Sterne, read-out: MIC
[13] = Enterococcus faecalis, ATCC 51575, read-out: MIC
[14] = Staphylococcus aureus, 1094, read-out: MIC
[15] = Escherichia coli, 700, read-out: MIC
[16] = Pseudomonas aeruginosa, PAO1, read-out: MIC
[17] = Klebsiella pneumoniae, 13882, read-out: MIC
[18] = Bacillus subtilis, BD54, read-out: MIC

| SMILES | MIC [1, 12] [µg/mL] | MIC [2] [µg/mL] | MIC [3, 13] [µg/mL] | CC50 [4] [µg/mL] | MIC [5, 14] [µg/mL] | MIC [6, 15] [µg/mL] | MIC [7, 16] [µg/mL] | MIC [8, 17] [µg/mL] | MIC [9] [µg/mL] | MIC [10, 18] [µg/mL] | CC50 [11] [µg/mL] | MIC [1] [µg/mL] | MIC [3] [µg/mL] | MIC [5] [µg/mL] | MIC [6] [µg/mL] | MIC [7] [µg/mL] | MIC [8] [µg/mL] | MIC [10] [µg/mL] |
| --- | --- | --- | --- | --- | --- | --- | --- | --- | --- | --- | --- | --- | --- | --- | --- | --- | --- | --- |
| c1cc2cc(-c3ccc(-c4cc5ccc(C6=NCCN6)cc5[nH]4)cc3)[nH]c2cc1C1=NCCN1 | 0.31 (≈ 0.697 µM) | 0.16 (≈ 0.36 µM) | 0.16 (≈ 0.36 µM) | 32.5 (≈ 73.1 µM) | 0.16 (≈ 0.36 µM) | 1.25 (≈ 2.81 µM) | 7.5 (≈ 16.9 µM) | 0.24 (≈ 0.54 µM) | 2.5 (≈ 5.62 µM) | 0.12 (≈ 0.27 µM) |  |  |  |  |  |  |  |  |
| c1cc2cc(-c3ccc(-c4nc5ccc(C6=NCCN6)cc5[nH]4)cc3)[nH]c2cc1C1=NCCN1 | 5 (≈ 11.2 µM) | 0.31 (≈ 0.696 µM) | 0.63 (≈ 1.41 µM) |  | 1.25 (≈ 2.81 µM) | 10 (≈ 22.4 µM) | 20 (≈ 44.9 µM) | 20 (≈ 44.9 µM) | 40 (≈ 89.8 µM) | 0.16 (≈ 0.359 µM) | 8.6 (≈ 19.3 µM) |  |  |  |  |  |  |  |
| c1cc2cc(-c3ccc(-c4cn5cc(C6=NCCCN6)ccc5n4)cc3)[nH]c2cc1C1=NCCCN1 | 1.25 (≈ 2.64 µM) | 0.31 (≈ 0.655 µM) | 0.63 (≈ 1.33 µM) | 19.7 (≈ 41.6 µM) | 0.63 (≈ 1.33 µM) | 5 (≈ 10.6 µM) | 5 (≈ 10.6 µM) | 5 (≈ 10.6 µM) | 5 (≈ 10.6 µM) | 0.08 (≈ 0.169 µM) |  |  |  |  |  |  |  |  |
| c1cc2cc(-c3ccc(-c4cn5ccc(C6=NCCCN6)cc5n4)cc3)[nH]c2cc1C1=NCCCN1 | 1.25 (≈ 2.64 µM) | 0.31 (≈ 0.655 µM) | 1.25 (≈ 2.64 µM) | 20.9 (≈ 44.1 µM) | 2.5 (≈ 5.28 µM) | 2.5 (≈ 5.28 µM) | 40 (≈ 84.5 µM) | 5 (≈ 10.6 µM) | > 80 | 0.16 (≈ 0.338 µM) |  |  |  |  |  |  |  |  |
| c1cc2cc(-c3ccc(-c4cc5ccc(C6=NCCCN6)cc5o4)cn3)[nH]c2cc1C1=NCCCN1 | 0.16 (≈ 0.337 µM) | 0.16 (≈ 0.337 µM) | 0.39 (≈ 0.822 µM) | 15.6 (≈ 32.9 µM) | 0.31 (≈ 0.653 µM) | 1.25 (≈ 2.63 µM) | 1.25 (≈ 2.63 µM) | 1.56 (≈ 3.29 µM) |  | 0.08 (≈ 0.169 µM) |  |  |  |  |  |  |  |  |
| CC1CNC(c2ccc3cc(-c4ccc(-c5cc6ccc(C7=NC(C)CN7)cc6o5)cc4)[nH]c3c2)=N1 (stereo in doubt; P6b) |  | 0.63 (≈ 1.33 µM) |  | 7.6 (≈ 16 µM) |  |  |  |  | 80 (≈ 169 µM) |  |  | 0.63 (≈ 1.33 µM) | 0.63 (≈ 1.33 µM) | 0.55 (≈ 1.16 µM) | 1.09 (≈ 2.3 µM) | 80 (≈ 169 µM) | 5 (≈ 10.6 µM) | 0.35 (≈ 0.739 µM) |
